The target in series [1] is T1, β5i subunit of human iCP (Homo sapiens, UniProt P20618+P28062).
T1 construct: purchased Boston Biochem, Inc., Cambridge, MA, USA
Set-up: method as in PMID 33894528. Particulars: limited stability of compounds after 1 h in assay buffer; read-out: IC50 (µM) against the β5i subunit of human iCP; cited from earlier work.

The target of series [2] is T1, β5i subunit of human iCP. Put plainly: Inhibition of β5i activity (RA at 10 µM, IC50, IC50 shift), Suc-LLVY-AMC. The format is biochemical. Particulars: for Group efficiency (GE): ΔpIC50/ΔNheavy with compound 1 as reference; for RA (%) at 10 µM, β5i: 10 µM compound, 30 min pre-incubation, SDS activator. The method, then: Residual activity measurements were performed at 10 μM final concentrations in the assay buffer (0.01% SDS, 50 mM Tris-HCl, 0.5 mM EDTA, pH 7.4). Stock solutions of the compounds were prepared in DMSO. To 50 μL of each compound in buffer, 25 μL of 0.8 nM human iCP or human cCP (both from Boston Biochem, Inc., Cambridge, MA, USA) were added. After incubation at 37 °C for 30 min, the reaction was started by adding of 25 μL of 100 μM relevant fluorogenic substrate: acetyl-Nle-Pro-Nle-Asp-AMC (Ac-nLPnLD-AMC, (Bachem, Bubendorf, Switzerland)) for β1, acetyl-Pro-Ala-Leu-7-amino-4-methylcoumarin (Ac-PAL-AMC, (Boston Biochem, Inc., Cambridge, MA, USA)) for β1i, t-butyloxycarbonyl-Leu-Arg-Arg-7-amino-4-methylcoumarin (Boc-LRR-AMC, (Bachem, Bubendorf, Switzerland)) for β2 and β2i, succinyl-Leu-Leu-Val-Tyr-7-amino-4-methylcoumarin (Suc-LLVY-AMC) (Bachem, Bubendorf, Switzerland) for β5 and β5i. Reaction progress was recorded on BioTek Synergy HT microplate reader by monitoring fluorescence at 460 nm (λex = 360 nm) for 90 min at 37 °C. The initial linear ranges were used to calculate velocity and determine residual activity. In the case of evaluation of β1, βi, β2, and β2i activities, the assay buffer was modified by replacing SDS with the proteasomal activator PA28α (Boston Biochem, Inc., Cambridge, MA, USA).
Final assay mixtures contained 0.2 nM human iCP or 0.2 nM human cCP in assay buffer (0.01% SDS (or PA28α in cases of β1, β1i subunits), 50 mM Tris-HCl, 0.5 mM EDTA, pH 7.4). Inhibitors were dissolved in DMSO and added to the black 96-well plates for at least eight different concentrations (the final concentration of DMSO was not more than 1%). […] Fluorescence was monitored at 460 nm (λex = 360 nm) for 90 min at 37 °C. The progress of the reactions was recorded and the initial linear ranges were used to calculate the velocity. IC50 values were calculated using GraphPadPrism (GraphPad Software, San Diego, CA, USA) and are means from at least three independent determinations.

A short description of series [3]: HPLC-based stability assay in PBS. Particulars: PBS pH 7.4. The format is physicochemical. How it is done:
(§1) GSH reactivity assay was performed as described by Petri et al.; 500 μM solution of compound (PBS buffer pH 7.4, 10% MeCN, 250 μL) with 200 μM solution of indoprofen as internal standard were added to 10 mM GSH solution (dissolved in PBS buffer, 250 μL) in a 1:1 ratio. The final concentration was 250 μM compound, 100 μM indoprofen, 5 mM GSH and 5% MeCN (500 μL). The final mixture was analyzed by HPLC after 0, 1, 2, 4, 8, 12, 24, 48, and 72 h. The degradation kinetics were also studied using the method described in [24], except that pure PBS buffer was used instead of GSH solution. In this experiment, the final concentration of the mixture was 250 μM fragment, 100 μM indoprofen and 5% MeCN. The area under the curve (AUC) values were determined by integrating the HPLC spectra and then corrected with the internal standard.

A short description of series [4]: HPLC-based GSH reactivity assay. The format is physicochemical. Particulars: 250 µM compound, 5 mM GSH, PBS pH 7.4. How it is done:
as §1, with “The final concentration was 250 μM compound, 100 μM indoprofen, 5 mM GSH and 5% MeCN (500 μL).” left out, “In this experiment, the final concentration of the mixture was 250 μM fragment, 100 μM indoprofen and 5% MeCN.” left out

A short description of series [5]: UV-Vis-based stability assay in buffer. Particulars: after 1 h, assay buffer pH 7.4, 37 °C, 50 µM. It counts as physicochemical. How it is done:
The aqueous stability of all compounds was determined spectrophotometrically by following the changes in the absorption spectra of the compounds. The buffer solution (50 mM Tris-HCl, 0.5 mM EDTA, pH 7.4) was pre-incubated at 37 °C. Aliquots of the compounds studied (1 mM in DMSO) were transferred to a 96-well flat-bottom UV-transparent microplate (Corning, CLS3635, Corning Inc, Corning, NY, USA) containing the buffer solution to obtain a 50 μM solution containing 5% DMSO (final volume, 300 μL). The plate was incubated without lid at 37 °C in a plate reader (Synergy H4, BioTek Instruments, Inc., Santa Clara, CA, USA) and the absorbance spectrum (244–400 nm) was acquired in sweep mode after 0, 15, 30, 60, 120, 180, and 240 min using a discontinuous kinetic procedure in Gen5 software (BioTek Instruments, Inc., Santa Clara, CA, USA). The time required to read the entire plate was 3 min. To determine the baseline, the compound solution was replaced with pure DMSO and subtracted from each reading. Compounds with an absorbance maximum of less than 0.20 AU were not evaluated using these assays due to the high experimental error. For other compounds, the relative absorbance difference between the first time point and 60 min at the most responsive wavelength was calculated. If the relative absorbance difference for the compound in the buffer was below 0.1, between 0.1–0.2, and above 0.2, the compound was classified as stable, intermediate, and unstable, respectively.

Another series has as its system GSH. Put plainly: HPLC-based GSH reactivity assay. The format is physicochemical. Particulars: 5 mM glutathione (GSH) in PBS buffer; 250 µM compound, 5 mM GSH, PBS pH 7.4; read-out: Reactivity with GSH (HPLC-based assay), t1/2. How it is done: as §1, with “The final concentration was 250 μM compound, 100 μM indoprofen, 5 mM GSH and 5% MeCN (500 μL).” left out, “In this experiment, the final concentration of the mixture was 250 μM fragment, 100 μM indoprofen and 5% MeCN.” left out

For another series, the target named is T2, human iCP (β5i) (Homo sapiens, UniProt P20618+P28062).
T2 construct: purchased Boston Biochem, Inc., Cambridge, MA, USA
As to the kind of experiment: Screening of heterocyclic electrophilic compounds at 500 µM (β5i). It counts as biochemical. Particulars: 30 min incubation. The method, then:
Screening of heterocyclic electrophilic compounds was performed at concentration of 500 µM in assay buffer (0.01% SDS, 50 mM Tris-HCl, 0.5 mM EDTA, pH 7.4). To 50 µL of each compound in buffer, 25 µL of 0.8 nM human iCP (Boston Biochem, Inc., Cambridge, MA, USA) was added. After 30 min incubation at 37 °C, the reaction was started by adding of 25 µL of […] Suc-LLVY-AMC (Bachem, Bubendorf, Switzerland), final concentration 25 µM). The reaction progress was recorded on BioTek Synergy HT microplate reader by monitoring fluorescence at 460 nm (λex = 360 nm) for 90 min at 37 °C. The initial linear ranges were used to calculate the velocity and determine the residual activity.

The target in another series is T3, β5 subunit of human cCP (Homo sapiens, UniProt P20618+P28074).
T3 construct: purchased Boston Biochem, Inc., Cambridge, MA, USA
Put plainly: Inhibition of β5 activity (RA, IC50), Suc-LLVY-AMC. The format is biochemical.

SMILES strings stand for the structures. Marks after values point to notes of the source that are not given here. Where only a bound is given, the exact number is not on record here.

Regarding `N#Cc1nc2ccccc2o1` [Compound 1, benzoxazole-2-carbonitrile], the IC50 (usually the concentration that gives 50% inhibition) at β5i subunit of human iCP [1] was 83 ± 6 µM.
Turning to `N#Cc1nc2cc(Cl)ccc2o1` [Compound 2], at β5i subunit of human iCP [2], the “Group efficiency (GE)” value is on record as 0.09. The IC50 on β5i subunit of human iCP [1] was 67 ± 11 µM.
As to `N#Cc1nc2ccc(Cl)cc2o1` [Compound 3], the “Group efficiency (GE)” value at β5i subunit of human iCP [2] is on record as 0.96. For the same molecule, on β5i subunit of human iCP [1], the IC50 was 9.1 ± 4.5 µM.
With `N#Cc1nc2cccc(Cl)c2o1` [Compound 4], the “Group efficiency (GE)” value on β5i subunit of human iCP [2] turned out to be 0.92. For the same molecule, on β5i subunit of human iCP [1], the IC50 was 10 ± 4.6 µM.
`Cc1ccc2nc(C#N)oc2c1` [Compound 5]: the “RA (%) at 10 µM, β5i” value at β5i subunit of human iCP [2] stood at 81 ± 4%. The “Stability in Buffer (HPLC-based assay)” value in series [3] is “low absorbance ^c/stable ^d”. Besides, the “Reactivity with GSH (HPLC-based assay), t1/2” value in series [4] is reported as less than 3 min.
On to `COc1ccc2oc(C#N)nc2c1` [Compound 7], for which, on β5i subunit of human iCP [2], the “RA (%) at 10 µM, β5i” value worked out at 84 ± 11% and the “Group efficiency (GE)” value came to 0.01. Moreover, the “RA (%) at 10 µM, β5i” value at β5i subunit of human iCP [2] (listed as 5-OMe) is on record as 84%. In addition, the “Stability in Buffer (UV-Vis-based assay)” value in series [5] is “stable ^c,d (relative absorbance difference for the compound in the buffer was below 0.1)”. Further, the “Stability in Buffer (HPLC-based assay)” value in series [3] is recorded as “stable ^c,d”. Moreover, in the series with GSH, the half-life at 250 µM was less than 3 min.
Take `COc1cccc2nc(C#N)oc12` [Compound 9]: on β5i subunit of human iCP [2], the “RA (%) at 10 µM, β5i” value is given as 20 ± 6% ^f and the “Group efficiency (GE)” value worked out at 0.61. Moreover, on β5i subunit of human iCP [2] (listed as 7-OMe), the “RA (%) at 10 µM, β5i” value is 20%. The “Stability in Buffer (UV-Vis-based assay)” value in series [5] is listed as “stable ^c,d (relative absorbance difference for the compound in the buffer was below 0.1)”. The “Stability in Buffer (HPLC-based assay)” value in series [3] is listed as “stable ^c,d”. The half-life at 250 µM in the series on GSH is less than 3 min.
Consider `N#Cc1nc2ccc(N)cc2o1` [Compound 22], for which the “Stability in Buffer (UV-Vis-based assay)” value in series [5] is given as “stable ^c,d (relative absorbance difference for the compound in the buffer was below 0.1)”. Moreover, in series [3], the “Stability in Buffer (HPLC-based assay)” value is “stable ^c,d”. Also, the “Reactivity with GSH (HPLC-based assay), t1/2” value in series [4] is less than 3 min.
As to `C=Cc1nccs1` [XXI, 2-vinylthiazole], the “RA at 500 µM [%] (β5i)” value on human iCP (β5i) amounted to 5 ± 3%.
On to `CC(C)C[C@H](NC(=O)[C@H](CCc1ccccc1)NC(=O)CN1CCOCC1)C(=O)N[C@@H](Cc1ccccc1)C(=O)N[C@@H](CC(C)C)C(=O)[C@@]1(C)CO1` [carfilzomib], for which, on β5 subunit of human cCP, the “β5 RA at 10 nM (control)” value turned out to be 25 ± 1%.

Values taken from article PMC8700061, “Fragment-Sized and Bidentate (Immuno)Proteasome Inhibitors Derived from Cysteine and Threonine Targeting Warheads” (Cells, 2021).
